Earlier results as cited in EP1479382A1, “Oral pharmaceutical compositions containing taxanes and methods for treatment employing the same” (IVAX Research, Inc., priority 1999, dated 2000).
Where two headings read alike, the source gives them in different places.

Legend:
[1] = system: tubulin
[2] = system: protein isoprenylation

For `CC(=O)O[C@H]1C(=O)[C@@]2(C)[C@H]([C@H](OC(=O)c3ccccc3)[C@]3(O)C[C@H](OC(=O)[C@H](O)[C@@H](NC(=O)c4ccccc4)c4ccccc4)C(C)=C1C3(C)C)[C@]1(OC(C)=O)CO[C@@H]1C[C@@H]2O` [paclitaxel], the “inhibition of tubulin disassembly occurs at levels of” value [1] is given as “about 0.1 µM”, the “inhibition of tubulin disassembly occurs at levels of” value ([1]; same level expressed in ng/ml) is given as “about 85 ng/ml” and the “inhibition of protein isoprenylation occurs at levels of” value [2] is given as “about 0.03 µM”. For the same compound, the “inhibition of protein isoprenylation occurs at levels of” value ([2]; same level expressed in ng/ml) was “about 25 ng/ml”.
